{
  "source": "patent US20220213030A1",
  "about": "“AMINOGUANIDINE HYDRAZONES AS RETROMER STABILIZERS USEFUL FOR TREATING NEUROLOGICAL DISEASES” (OSPEDALE SAN RAFFAELE SRL, priority 2019, published 2022)",
  "key": {"[1]": {"test_system": "Golgi apparatus in Neuro2a cells receiving G93A plasmids", "assay": "Golgi morphology (Golgin97) in Neuro2a cells receiving G93A plasmids", "assay_type": "cell-based, mouse", "conditions": "10 μM, 48 hours, G93A-transfected Neuro2a", "excerpt": "Pathological alteration of the Golgi apparatus, such as its fragmentation, has been described in many neurodegenerative disorders including ALS. Neuro2a cells transfected with plasmids encoding the G93A mutant form of the SOD1 show alteration of the Golgi transport (Soo, Halloran et al. 2015). Along the same lines, Golgi fragmentation precedes neuromuscular denervation and axon retraction in ALS mice (van Dis, Kuijpers et al. 2014). We transfected Neuro2a cells with plasmids encoding the G93A mutant form of the human SOD1 gene (hereafter G93A) in presence or in absence of compound 2a (10 μM). Cells were harvested after 48 hours, labelled for Golgin-97 and scored for the distribution of trans-Golgi. […] Of note, the fragmentation of Golgi in cells receiving G93A plasmids was not depending on Golgin97 expression levels (FIG. 3A). We speculated that Golgi fragmentation may exacerbate cell death in this cell line. Therefore, we assayed cell survival of Neuro2a transfected with G93A plasmids. Accordingly, cells were transfected with G93A plasmids or with a control plasmid encoding the LacZ. […]\nGolgi morphology was assessed in control or in Neuro2a cells receiving G93A plasmids with or without compound 2a (10 μM) according to published methods (Stafa 2012). […] Golgi subclasses were expressed as a percent of the total number of Golgi scored for each experimental condition."}, "[2]": {"test_system": "G93A mice", "assay": "Histopathology of sciatic nerves of G93A mice", "assay_type": "in vivo, mouse", "conditions": "10 mg/kg daily, day 100", "excerpt": "We next performed histopathological analysis of sciatic nerves from WT control and G93A mice receiving compound 2a or vehicle. […] Using Luxol Fast Blue (LFB) staining, which binds lipoproteins of the myelin sheath, we analyzed myelination in sagittal sections of these nerves. […] Therefore, we observed a reduction of fibers degeneration and demyelination in sciatic nerves of G93A mice treated with compound 2a.\nComparative studies on sciatic nerves were done on tissues removed upon saline perfusion and rapidly fixed with 2% glutaraldehyde in 0.12 mol/L phosphate buffer, post fixed with 1% osmium tetroxide, and embedded in Epon (Fluka). Semi-thin sections (1 μm thick) were stained with toluidine blue and examined by light microscopy (Olympus BX51). Digitized not overlapping semi-thin section images from corresponding levels of the sciatic nerve were obtained with a digital camera (Leica DFC300F) using a 40X objective. Quantifications were done on at least 5 acquired images from each mouse. The numbers of degenerating nerve fibers were quantified using ImageJ software (National Institutes of Health, Bethesda, Md.)."}, "[3]": {"target": "VPS35 (Mus musculus, UniProt Q9EQH3+Q9QZ88)", "assay": "VPS35 western blot in spinal cord extracts of G93A mice", "assay_type": "in vivo", "conditions": "10 mg/kg, day 100", "method": "Lumbar spinal cords were dissected from saline perfused mice and rapidly homogenized in the following lysis buffer: Tris-HCl 10 mM pH 8, EDTA pH 8 1 mM, NaCl 100 mM, NP40 1% and protease inhibitor cocktail (Sigma). Protein extracts were obtained using a tight-fitting glass Potter tissue grinder (1 ml; Wheaton) and then sonicated at a frequency of 20 kHz (10 times-1s). Protein lysates from cells cultures were obtained from plates receiving PBS1× washing and subsequently the lysis buffer followed by sonication. Protein concentrations were measured by BCA protein assay kit (Thermofisher) according to the manufacturer's recommendations. Ten μg of protein extract was loaded on 10% Mini-PROTEAN TGX Stain-Free precast gels for PAGE (Bio-Rad). Gel electrophoresis was performed at 100 V for 2 hours. Gels were transferred on Immobilon®-P PVDF membrane according to the manufacturer's instructions (Millipore). Blots were blocked in 5% BSA in Tris buffered saline plus 0.1% Tween-20 (TBS-T) for 1 hour before receiving primary antibodies: goat α-VPS35 1:800 (ab10099, Abcam); rabbit α-VPS26b 1:1000 (15915-1-AP, ProteinTech); rabbit α-VPS29 1:1000 (ab236796 Abcam); mouse α-βActin 1:25000 (Sigma); mouse α-Golgin97 1:1000 (Invitrogen); mouse α-Ubiquitin 1:500 (Merk) overnight at 4° C. on shaker. […] Quantifications were done using the Image Lab 6.0.1 software (Bio-Rad)."}},
  "data": [
    {"molecule": "N=C(N)NN=Cc1cccc(C=NNC(=N)N)c1", "note": "[Compound 2a, 1,3-Bis-amino guanidine phenyl hydrazone]", "values": [
      {"measurement": "percentages of cells showing partial or complete fragmentation of the Golgi complex", "setting": "[1]", "value": "significantly diminished these percentages"},
      {"measurement": "degenerating peripheral nerve fibers in sciatic nerves", "setting": "[2]", "value": "significant protection of peripheral nerve fibers"},
      {"measurement": "demyelination (Luxol Fast Blue staining)", "setting": "[2]", "value": "substantial attenuation of the demyelination process"},
      {"measurement": "myelin integrity (MBP and NF-M labelling)", "setting": "[2]", "value": "preserved the integrity of myelin"},
      {"measurement": "VPS35 levels in SC extracts (WB)", "setting": "[3]", "value": "increase VPS35 and VPS26b levels"}
    ]}
  ]
}
